Common to all, as to assay type: cell-based
One experiment concerns the target T1, human TLR7 (Homo sapiens, UniProt Q9NYK1).
T1 construct: expressed in transfected cells; host or cells: HEK293
T1 sequence (Q9NYK1 27-1049): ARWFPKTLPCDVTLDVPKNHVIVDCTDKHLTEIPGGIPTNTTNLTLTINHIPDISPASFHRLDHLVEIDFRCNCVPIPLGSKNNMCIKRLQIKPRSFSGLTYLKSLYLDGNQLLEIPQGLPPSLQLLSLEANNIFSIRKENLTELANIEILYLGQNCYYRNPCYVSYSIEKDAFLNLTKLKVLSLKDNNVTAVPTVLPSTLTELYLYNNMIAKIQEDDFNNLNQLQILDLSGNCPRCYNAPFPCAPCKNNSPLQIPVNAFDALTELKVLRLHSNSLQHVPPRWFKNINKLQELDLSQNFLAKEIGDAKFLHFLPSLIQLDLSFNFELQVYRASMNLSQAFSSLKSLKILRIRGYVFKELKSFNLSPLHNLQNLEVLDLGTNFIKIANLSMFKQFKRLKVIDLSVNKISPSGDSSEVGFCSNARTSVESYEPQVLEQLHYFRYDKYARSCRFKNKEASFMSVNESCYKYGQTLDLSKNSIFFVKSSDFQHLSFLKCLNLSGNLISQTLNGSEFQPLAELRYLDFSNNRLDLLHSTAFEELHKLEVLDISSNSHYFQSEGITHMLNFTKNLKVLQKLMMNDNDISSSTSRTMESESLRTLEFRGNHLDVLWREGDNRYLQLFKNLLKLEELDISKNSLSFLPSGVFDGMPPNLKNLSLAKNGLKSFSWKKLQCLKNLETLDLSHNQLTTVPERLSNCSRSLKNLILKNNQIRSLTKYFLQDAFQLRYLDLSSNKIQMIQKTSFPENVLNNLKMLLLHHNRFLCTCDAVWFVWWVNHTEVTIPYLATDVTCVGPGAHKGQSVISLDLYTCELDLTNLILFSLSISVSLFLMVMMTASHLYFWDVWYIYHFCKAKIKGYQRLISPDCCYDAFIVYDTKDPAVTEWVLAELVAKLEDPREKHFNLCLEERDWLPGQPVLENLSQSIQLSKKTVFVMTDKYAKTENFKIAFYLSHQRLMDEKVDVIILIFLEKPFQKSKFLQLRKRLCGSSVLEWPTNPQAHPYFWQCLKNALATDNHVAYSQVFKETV
Nature of the experiment: TLR7 cellular reporter assay (HEK293, NFκB-luc). The following applies: lowest effective concentration; HEK293 transiently transfected with TLR7 and NFκB-luc; 6 hours incubation. How it is done: (§1) The ability of compounds to activate human TLR7 and/or TLR8 was assessed in a cellular reporter assay using HEK293 cells transiently transfected with a TLR7 or TLR8 expression vector and NFκB-luc reporter construct.
(§2) Briefly, HEK293 cells were grown in culture medium (DMEM supplemented with 10% FCS and 2 mM Glutamine). For transfection of cells in 15 cm dishes, cells were detached with Trypsin-EDTA, transfected with a mix of CMV-TLR7 or TLR8 plasmid (1700 ng), NFκB-luc plasmid (850 ng) and a transfection reagent and incubated for 48 h at 37° C. in a humidified 5% CO2 atmosphere. Transfected cells were then washed in PBS, detached with Trypsin-EDTA and resuspended in medium to a density of 1.25×10^5 cells/mL. Forty microliters of cells were then dispensed into each well in 384-well plates, where 200 nL of compound in 100% DMSO was already present. Following 6 hours incubation at 37° C., 5% CO2, the luciferase activity was determined by adding 15 μL of Steady Lite Plus substrate (Perkin Elmer) to each well and readout performed on a ViewLux ultraHTS microplate imager (Perkin Elmer). Dose response curves were generated from measurements performed in quadruplicates. Lowest effective concentrations (LEC) values, defined as the concentration that induces an effect which is at least two fold above the standard deviation of the assay, were determined for each compound.
On the technique in general: In a reporter assay the amount or activity of a reporter protein is the signal.

In a further experiment the target is T2, human TLR8 (Homo sapiens, UniProt Q9NR97).
T2 construct: expressed in transfected cells; host or cells: HEK293
T2 sequence (Q9NR97 27-1041): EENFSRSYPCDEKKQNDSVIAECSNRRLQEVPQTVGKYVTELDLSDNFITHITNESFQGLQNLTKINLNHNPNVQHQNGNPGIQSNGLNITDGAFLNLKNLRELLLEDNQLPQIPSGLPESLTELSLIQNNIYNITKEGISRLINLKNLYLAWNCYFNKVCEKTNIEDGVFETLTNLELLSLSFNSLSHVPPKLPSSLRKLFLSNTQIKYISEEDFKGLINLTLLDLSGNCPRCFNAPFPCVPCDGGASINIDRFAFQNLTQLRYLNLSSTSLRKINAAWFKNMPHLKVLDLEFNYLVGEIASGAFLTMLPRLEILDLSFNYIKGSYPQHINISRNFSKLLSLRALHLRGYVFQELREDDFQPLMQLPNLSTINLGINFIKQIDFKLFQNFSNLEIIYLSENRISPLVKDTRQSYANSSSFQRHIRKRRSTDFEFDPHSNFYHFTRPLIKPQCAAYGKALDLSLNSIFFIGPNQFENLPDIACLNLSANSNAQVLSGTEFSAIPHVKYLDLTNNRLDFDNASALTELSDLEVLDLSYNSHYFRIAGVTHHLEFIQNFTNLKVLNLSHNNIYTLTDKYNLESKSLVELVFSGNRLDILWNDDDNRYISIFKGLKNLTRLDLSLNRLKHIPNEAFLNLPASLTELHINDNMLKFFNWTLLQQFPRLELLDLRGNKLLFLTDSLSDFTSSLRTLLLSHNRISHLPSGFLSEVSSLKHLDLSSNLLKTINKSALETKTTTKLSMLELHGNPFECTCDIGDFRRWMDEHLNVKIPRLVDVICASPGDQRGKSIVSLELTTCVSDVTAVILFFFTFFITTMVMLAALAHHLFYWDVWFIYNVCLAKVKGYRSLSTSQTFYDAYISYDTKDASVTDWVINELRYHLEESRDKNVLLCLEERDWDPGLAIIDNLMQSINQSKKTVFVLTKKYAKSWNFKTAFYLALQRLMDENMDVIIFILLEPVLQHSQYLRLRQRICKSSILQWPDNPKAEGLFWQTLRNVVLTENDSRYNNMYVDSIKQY
Kind of experiment: TLR8 cellular reporter assay (HEK293, NFκB-luc). The following applies: lowest effective concentration; HEK293 transiently transfected with TLR8 and NFκB-luc; 6 hours incubation. On the procedure: as §1, §2

For experiment [1], the system named is interferon-stimulated responsive elements (ISRE). Kind of experiment: Activation of ISRE promoter elements by conditioned media from PBMC (HEK-ISREluc). Particulars: compound concentration applied to PBMCs overnight; supernatant on HEK-ISREluc cells 24 hours. On the procedure:
The potential of compounds to induce IFN-I was also evaluated by measuring the activation of interferon-stimulated responsive elements (ISRE) by conditioned media from PBMC. The ISRE element of sequence GAAACTGAAACT (SEQ ID NO: 1) is highly responsive to the STAT1-STAT2-IRF9 transcription factor, activated upon binding of IFN-I to their receptor IFNAR (Clontech, PT3372-5W). The plasmid pISRE-Luc from Clontech (ref. 631913) contains 5 copies of this ISRE element, followed by the firefly luciferase ORF. A HEK293 cell line stably transfected with pISRE-Luc (HEK-ISREluc) was established to profile the conditioned PBMC cell culture media.
Briefly, PBMCs were prepared from buffy coats of at least two donors using a standard Ficoll centrifugation protocol. Isolated PBMCs were resuspended in RPMI medium supplemented with 10% human AB serum and 2×10^5 cells/well were dispensed into 384-well plates containing compounds (70 μL total volume). After overnight incubation, 10 μL of supernatant was transferred to 384-well plates containing 5×10^3 HEK-ISREluc cells/well in 30 μL (plated the day before). Following 24 hours of incubation, activation of the ISRE elements was measured by assaying luciferase activity using 40 μL/well Steady Lite Plus substrate (Perkin Elmer) and measured with ViewLux ultraHTS microplate imager (Perkin Elmer). […]

From US10647684B2, “2-aminopyrimidine derivatives for the treatment of viral infections” (Janssen Sciences Ireland Unlimited Company, priority 2013, dated 2020) come the findings set out here.

With `CCCC[C@@H](CC[S+](C)[O-])Nc1nc(N)ncc1OC` (some centres unmarked) [Compound 2], the “Human TLR 7 (LEC)” value at human TLR7 was determined as 1.4 µM. Further, at human TLR8, the “Human TLR 8 (LEC)” value is 9.2 µM. Further, the “HEK-ISRE luc (LEC)” value in experiment [1] came to 4.8 µM.
Regarding `CCCC[C@@H](CCSC)Nc1nc(N)ncc1OC` [E], the “Human TLR 7 (LEC)” value on human TLR7 came to 3.9 µM. Further, on human TLR8, the “Human TLR 8 (LEC)” value was determined as 10 µM.
`CCCC[C@@H](CCS(C)(=O)=O)Nc1nc(N)ncc1OC` [Compound 1]: the “Human TLR 7 (LEC)” value at human TLR7 was 2.0 µM. Further, at human TLR8, the “Human TLR 8 (LEC)” value was determined as 1.7 µM. Also, the “HEK-ISRE luc (LEC)” value in experiment [1] is 0.65 µM.
